Results on 28 compounds are retold here after ChEMBL document CHEMBL1201862, “PubChem BioAssay data set” (2004).

Active and inactive are the calls of the source.

Data set [1] has as its target T1, Short transient receptor potential channel 4 (Mus musculus, UniProt Q9QUQ5).
T1 sequence (Q9QUQ5 whole entry): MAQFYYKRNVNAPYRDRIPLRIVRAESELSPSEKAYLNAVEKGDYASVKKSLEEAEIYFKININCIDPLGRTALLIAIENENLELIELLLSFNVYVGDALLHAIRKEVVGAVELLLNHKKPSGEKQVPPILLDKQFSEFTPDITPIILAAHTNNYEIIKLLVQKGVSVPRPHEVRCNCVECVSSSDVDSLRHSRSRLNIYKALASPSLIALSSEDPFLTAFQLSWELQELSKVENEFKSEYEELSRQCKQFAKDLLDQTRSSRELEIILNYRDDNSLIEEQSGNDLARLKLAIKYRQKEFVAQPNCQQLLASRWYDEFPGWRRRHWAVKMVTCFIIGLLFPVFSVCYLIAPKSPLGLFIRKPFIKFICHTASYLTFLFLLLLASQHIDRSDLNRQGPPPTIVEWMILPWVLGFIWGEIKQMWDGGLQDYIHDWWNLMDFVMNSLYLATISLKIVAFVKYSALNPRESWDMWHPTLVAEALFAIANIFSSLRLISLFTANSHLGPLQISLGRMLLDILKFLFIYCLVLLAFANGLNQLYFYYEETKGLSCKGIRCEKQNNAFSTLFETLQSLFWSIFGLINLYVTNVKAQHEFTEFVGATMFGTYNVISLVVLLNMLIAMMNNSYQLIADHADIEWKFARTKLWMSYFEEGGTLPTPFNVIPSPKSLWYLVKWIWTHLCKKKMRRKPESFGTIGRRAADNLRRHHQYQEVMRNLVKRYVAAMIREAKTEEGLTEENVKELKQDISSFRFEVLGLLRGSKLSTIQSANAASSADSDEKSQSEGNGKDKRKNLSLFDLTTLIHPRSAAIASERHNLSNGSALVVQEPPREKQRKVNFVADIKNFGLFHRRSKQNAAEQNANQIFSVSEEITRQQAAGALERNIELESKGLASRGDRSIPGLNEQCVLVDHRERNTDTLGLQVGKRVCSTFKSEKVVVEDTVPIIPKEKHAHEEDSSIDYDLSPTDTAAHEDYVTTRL
The data set can be described thus: mouse TRPC4 channel activators, dose response, cell-based, HEK293 TRPC4/mu-opioid, Fluo-4 calcium (AID 434937). In kind it is functional.

In data set [2] the target is Eukaryotic translation initiation factor 4E (Mus musculus, UniProt P63073). The experiment in a line: eIF4E–eIF4G protein interaction inhibitors, dose response, biochemical, TR-FRET (AID 855).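 Note: potency for disrupting eIF4E binding to eIF4GI seen as loss of FRET.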 In kind it is functional. On the technique in general: In TR-FRET formats the signal depends on donor and acceptor labels being close together.
Chain of Eukaryotic translation initiation factor 4E (P63073 whole entry): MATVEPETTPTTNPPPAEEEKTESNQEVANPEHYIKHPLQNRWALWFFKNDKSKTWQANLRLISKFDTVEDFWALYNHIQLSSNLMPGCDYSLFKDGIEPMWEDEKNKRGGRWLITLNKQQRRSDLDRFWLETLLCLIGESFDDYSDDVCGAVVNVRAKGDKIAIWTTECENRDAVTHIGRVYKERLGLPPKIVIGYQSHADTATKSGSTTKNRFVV
Data set [3] concerns the target Kallikrein-7 (Homo sapiens, UniProt P49862). The data set can be described thus: Fluorescence Intensity-based biochemical primary high throughput dose response assay to identify activators of kallikrein-7 (K7) zymogen.
Data set [4] has as its target T2, Cytochrome P450 3A4 (Homo sapiens, UniProt P08684). Conditions: Potency.
In data set [5] the target is T3, Histone-lysine N-methyltransferase NSD2 (Homo sapiens, UniProt O96028).
T3 sequence (O96028 whole entry): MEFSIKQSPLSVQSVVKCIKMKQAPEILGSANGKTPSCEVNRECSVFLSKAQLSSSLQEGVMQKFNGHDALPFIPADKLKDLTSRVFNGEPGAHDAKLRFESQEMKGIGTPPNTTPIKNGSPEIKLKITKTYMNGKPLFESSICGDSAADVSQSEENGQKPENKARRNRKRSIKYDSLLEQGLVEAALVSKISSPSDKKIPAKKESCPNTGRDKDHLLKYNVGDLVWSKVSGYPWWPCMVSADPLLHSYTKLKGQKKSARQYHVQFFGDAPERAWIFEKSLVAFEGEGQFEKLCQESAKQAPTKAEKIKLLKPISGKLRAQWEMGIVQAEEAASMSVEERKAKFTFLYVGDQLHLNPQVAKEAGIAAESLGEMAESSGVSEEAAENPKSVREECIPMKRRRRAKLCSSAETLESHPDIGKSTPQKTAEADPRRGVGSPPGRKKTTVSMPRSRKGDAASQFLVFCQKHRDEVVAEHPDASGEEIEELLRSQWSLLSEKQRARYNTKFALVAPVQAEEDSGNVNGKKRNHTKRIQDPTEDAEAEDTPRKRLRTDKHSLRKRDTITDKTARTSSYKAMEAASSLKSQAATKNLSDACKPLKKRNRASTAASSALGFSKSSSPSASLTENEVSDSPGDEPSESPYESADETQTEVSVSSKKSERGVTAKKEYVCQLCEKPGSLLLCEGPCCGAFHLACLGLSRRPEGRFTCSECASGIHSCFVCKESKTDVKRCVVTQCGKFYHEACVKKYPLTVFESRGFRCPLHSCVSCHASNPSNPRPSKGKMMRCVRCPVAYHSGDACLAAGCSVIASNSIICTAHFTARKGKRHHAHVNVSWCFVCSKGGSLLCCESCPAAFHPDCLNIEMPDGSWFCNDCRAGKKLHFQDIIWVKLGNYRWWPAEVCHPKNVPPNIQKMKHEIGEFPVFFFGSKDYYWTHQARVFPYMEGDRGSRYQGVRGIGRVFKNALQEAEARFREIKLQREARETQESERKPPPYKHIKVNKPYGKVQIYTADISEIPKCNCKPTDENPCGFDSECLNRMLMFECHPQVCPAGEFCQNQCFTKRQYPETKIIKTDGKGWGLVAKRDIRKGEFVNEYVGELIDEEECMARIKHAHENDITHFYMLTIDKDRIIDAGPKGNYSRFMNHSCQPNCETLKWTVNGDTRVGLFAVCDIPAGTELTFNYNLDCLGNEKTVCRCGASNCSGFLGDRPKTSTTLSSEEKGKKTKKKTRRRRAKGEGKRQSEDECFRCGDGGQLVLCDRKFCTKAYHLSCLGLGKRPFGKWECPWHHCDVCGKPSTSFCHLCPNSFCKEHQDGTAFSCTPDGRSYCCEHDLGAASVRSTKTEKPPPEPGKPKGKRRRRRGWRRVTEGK
In kind it is biochemical.

Data set [6] addresses Cytochrome P450 2D6 (Homo sapiens, UniProt P10635).
Data set [7] addresses T4, Cytochrome P450 2C9 (Homo sapiens, UniProt P11712).
Data set [8] addresses T1, Short transient receptor potential channel 4. The data set can be described thus: mouse TRPC4 channel inhibitors, dose response, cell-based, HEK293 TRPC4/mu-opioid, Fluo-4 calcium (AID 434942).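 Note: potency of inhibitors blocking the TRPC4 calcium response.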 Format: functional.
The target of data set [9] is T2, Cytochrome P450 3A4.
Data set [10] can be described thus: A cytotoxicity screen of small molecule inhibitors of the PhoP region in Salmonella typhi identified in the primary screen. [Related pubchem assays: 1850, 1864, 1985 ]. In kind it is functional.
Data set [11] addresses T5, Carboxy-terminal domain RNA polymerase II polypeptide A small phosphatase 1 (Homo sapiens, UniProt Q9GZU7).
T5 sequence (Q9GZU7 whole entry): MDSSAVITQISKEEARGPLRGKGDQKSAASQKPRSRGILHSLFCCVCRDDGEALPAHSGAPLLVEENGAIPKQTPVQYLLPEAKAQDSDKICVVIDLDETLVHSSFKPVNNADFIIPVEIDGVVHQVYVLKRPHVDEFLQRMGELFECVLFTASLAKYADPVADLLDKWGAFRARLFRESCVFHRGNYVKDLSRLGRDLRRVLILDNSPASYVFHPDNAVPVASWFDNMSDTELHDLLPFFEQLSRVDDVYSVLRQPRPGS
The experiment in a line: inhibitors of CTDSP1, concentration-response testing, biochemical assay, absorbance-based, actives from ultra-high-throughput screening (AID 540297). Format: functional.

The target in data set [12] is Cytochrome P450 2C19 (Homo sapiens, UniProt P33261). The experiment in a line: Cytochrome panel assay with activity outcomes. Panel member name: p450-cyp2c19 Compounds with AC50 equal or less than 10 uM are considered active. In kind it is functional.
Chain of Cytochrome P450 2C19 (P33261 whole entry): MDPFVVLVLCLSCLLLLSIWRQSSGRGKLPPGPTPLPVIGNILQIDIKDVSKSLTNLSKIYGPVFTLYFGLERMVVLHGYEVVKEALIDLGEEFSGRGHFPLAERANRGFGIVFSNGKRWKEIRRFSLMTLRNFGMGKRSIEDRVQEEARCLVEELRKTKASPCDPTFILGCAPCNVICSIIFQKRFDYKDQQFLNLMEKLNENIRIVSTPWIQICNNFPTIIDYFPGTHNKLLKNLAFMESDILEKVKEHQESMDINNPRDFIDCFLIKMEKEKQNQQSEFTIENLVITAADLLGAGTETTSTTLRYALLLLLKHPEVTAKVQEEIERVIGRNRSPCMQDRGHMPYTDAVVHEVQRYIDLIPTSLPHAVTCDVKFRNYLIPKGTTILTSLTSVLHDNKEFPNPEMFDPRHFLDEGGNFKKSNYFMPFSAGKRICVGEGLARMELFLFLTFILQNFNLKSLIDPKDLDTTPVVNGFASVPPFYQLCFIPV
Data set [13] deals with T4, Cytochrome P450 2C9. The source holds these as a separate data set.

Chain of Cytochrome P450 2D6 (P10635 whole entry): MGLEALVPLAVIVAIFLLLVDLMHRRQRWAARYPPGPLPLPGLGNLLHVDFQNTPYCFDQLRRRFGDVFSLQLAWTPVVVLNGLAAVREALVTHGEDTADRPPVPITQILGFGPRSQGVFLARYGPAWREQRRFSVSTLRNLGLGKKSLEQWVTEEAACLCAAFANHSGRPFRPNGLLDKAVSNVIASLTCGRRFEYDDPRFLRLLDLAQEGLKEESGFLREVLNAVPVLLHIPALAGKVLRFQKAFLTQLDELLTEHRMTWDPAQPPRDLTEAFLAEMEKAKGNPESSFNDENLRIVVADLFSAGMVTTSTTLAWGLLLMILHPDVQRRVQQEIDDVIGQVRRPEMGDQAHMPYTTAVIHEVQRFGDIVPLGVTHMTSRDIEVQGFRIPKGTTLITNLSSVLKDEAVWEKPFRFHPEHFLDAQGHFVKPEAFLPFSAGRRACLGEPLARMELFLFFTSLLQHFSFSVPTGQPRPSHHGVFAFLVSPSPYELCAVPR
T2 sequence (P08684 whole entry): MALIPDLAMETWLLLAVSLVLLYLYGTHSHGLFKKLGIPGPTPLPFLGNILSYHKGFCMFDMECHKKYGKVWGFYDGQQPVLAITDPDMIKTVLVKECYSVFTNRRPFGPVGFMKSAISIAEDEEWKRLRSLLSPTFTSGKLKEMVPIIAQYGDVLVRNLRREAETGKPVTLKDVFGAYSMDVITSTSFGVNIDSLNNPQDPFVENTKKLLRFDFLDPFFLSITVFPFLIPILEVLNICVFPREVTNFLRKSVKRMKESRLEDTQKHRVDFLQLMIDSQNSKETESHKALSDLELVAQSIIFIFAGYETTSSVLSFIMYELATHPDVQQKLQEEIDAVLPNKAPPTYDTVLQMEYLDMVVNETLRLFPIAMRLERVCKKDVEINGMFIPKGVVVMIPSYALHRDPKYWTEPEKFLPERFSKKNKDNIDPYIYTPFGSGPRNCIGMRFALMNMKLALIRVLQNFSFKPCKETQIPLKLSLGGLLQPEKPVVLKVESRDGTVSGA
Chain of Kallikrein-7 (P49862 whole entry): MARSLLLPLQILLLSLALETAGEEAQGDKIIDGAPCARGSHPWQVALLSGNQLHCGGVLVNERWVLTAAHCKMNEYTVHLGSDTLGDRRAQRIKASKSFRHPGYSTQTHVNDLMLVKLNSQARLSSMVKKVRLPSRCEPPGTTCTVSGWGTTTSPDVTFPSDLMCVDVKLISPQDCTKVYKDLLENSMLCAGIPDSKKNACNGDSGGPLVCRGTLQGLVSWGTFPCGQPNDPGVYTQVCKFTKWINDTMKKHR
T4 sequence (P11712 whole entry): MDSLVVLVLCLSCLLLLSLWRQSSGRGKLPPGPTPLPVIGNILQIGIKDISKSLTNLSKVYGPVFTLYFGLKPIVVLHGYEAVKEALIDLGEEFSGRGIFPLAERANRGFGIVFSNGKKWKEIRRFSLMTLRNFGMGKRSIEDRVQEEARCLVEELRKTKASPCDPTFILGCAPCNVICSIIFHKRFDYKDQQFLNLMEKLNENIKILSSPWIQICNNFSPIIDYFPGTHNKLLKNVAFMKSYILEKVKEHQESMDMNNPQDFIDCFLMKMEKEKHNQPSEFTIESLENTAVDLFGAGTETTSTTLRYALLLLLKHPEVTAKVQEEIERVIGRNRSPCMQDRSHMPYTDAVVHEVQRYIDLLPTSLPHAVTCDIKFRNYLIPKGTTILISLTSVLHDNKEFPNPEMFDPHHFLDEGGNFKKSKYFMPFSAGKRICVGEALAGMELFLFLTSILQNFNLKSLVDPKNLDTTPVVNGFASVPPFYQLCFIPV

Turning to `O=C(CCCc1ccccc1)NCCc1cnc[nH]1`, the concentration for a half-maximal effect (EC50) in [1] was 5.31 µM (active).
In the case of `CCc1nnc(NC(=O)Cn2nc(-c3ccccc3OC)ccc2=O)s1`, in data set [2], the IC50 is > 64 µM (inactive).
Regarding `O=C(CSc1ncn(-c2ccccc2)n1)N1CCc2ccccc21`, in data set [2], the IC50 is > 64 µM (inactive).
As for `COC(=O)CNC(=O)COC(=O)c1cc(Cl)cc(Cl)c1N`, the EC50 in [3] is > 69.5 µM (inactive).
Same read-out and setting: in the case of `COc1ccc(/C=C/C(O)=C2/C(=O)NC3(C)CC2c2ccccc2O3)c(OC)c1OC` (stereo not given) it was > 69.6 µM (inactive).
As to `CC(=O)Oc1c2c(c3c(c1CC=C(C)C)O[C@@]14C(=CC5CC1C(C)(C)OC4(C/C=C(\C)C(=O)O)C5=O)C3=O)OC(C)(CCC=C(C)C)C=C2` (stereo not given in full), the AC50 in data set [4] is 39.8 µM (inconclusive).
With `COc1cc(C(=O)NNC(=O)C2CC=CCC2C(=O)O)cc(OC)c1OC` (stereo not given), the IC50 in [2] is > 64 µM (inactive).
For `Cc1cc2ccccn2c1C(=S)NC(=O)c1ccccc1`, the AC50 in data set [5] is > 20 µM (inactive).
As to `O=C(Nc1ccc2c(c1)OCCO2)C1CCN(C(=O)c2ccccc2)CC1`, in data set [6], the AC50 result was “inconclusive”.
`CCN(CC)CCn1c(-c2ccccc2)nc2c(NCCOC)nc(C)nc21`: in [4], the concentration at half-maximal activity (AC50) was 12.6 µM (inconclusive).
As for `COCCNc1ncncc1-c1c(C)noc1C`, in data set [7], the AC50 result was “inconclusive”.
With `COc1ccc(Cl)cc1NC(=O)CNCC(c1ccccc1)N(C)C` (stereo not given), the 50% effective concentration (EC50) in data set [1] was 1.06 µM (active); in data set [8] it was 0.421 µM (active).
Take `CSc1ccc(Cl)c(C(=O)NCCOc2cc(C)ccc2C(C)C)c1`: the concentration at half-maximal activity (AC50) result was “inconclusive” in [7] and 1 µM (inconclusive) in data set [9].
Regarding `CCCCOc1ccc(OCCNC(=O)c2ccco2)cc1`, the EC50 in [10] is > 50 µM (active).
Take `O=C(Cn1cnc2ccccc21)Nc1ccc(SC(F)F)cc1`: in data set [10], the EC50 is > 50 µM (active).
For `O=C(NC1CCC(O)CC1)c1cc(-c2ccco2)nc2ccccc12` (stereo not given), the EC50 in [3] is > 69.5 µM (inactive). Besides, the IC50 in data set [2] is 50 µM (inactive); in data set [11], 5.9 µM (active).
`O=C(C[n+]1ccccc1)c1ccc(-c2ccccc2)cc1`: the concentration giving a half-maximal response (EC50) in [10] was > 50 µM (active).
For `CC(=O)OC1CC2C(C)(C)C(O)C=C[C@@]2(C)C2CC[C@]3(C)C(=CC(=O)OC3c3ccoc3)[C@]12C` (stereo not given in full), in [4], the half-maximal activity concentration (AC50) was 15.8 µM (inconclusive).
As to `CCNc1cc(O)ccc1C`, the AC50 in data set [4] was 25.1 µM (inconclusive).
Turning to `Cc1cc2ccccc2c(=O)n1CC(=O)NCCC1=CCCCC1`, the EC50 in data set [10] is > 50 µM (active).
With `COCC(=O)Oc1c(Sc2ccccc2[N+](=O)[O-])c(C)nn1C(C)(C)C`, the IC50 in data set [2] is 50 µM (inactive).
For the compound `COc1ccc(-c2nc(NC(=O)c3ccccc3)sc2-c2ccc([N+](=O)[O-])cc2)cc1`, the half-maximal activity concentration (AC50) result in data set [6] is “inconclusive”; in [12] (read-out: AC50), 1.26 µM (inconclusive); in [13] it was 2.82 µM (inconclusive).
Take `CC(COc1ccccc1)N1CCC(CO)(CCc2ccccc2)CC1` (stereo not given): the 50% effective concentration (EC50) in data set [1] is 0.267 µM (active).
`Cc1noc(C)c1-c1cc(N2CCN(C)CC2)ncn1`: the AC50 entry in data set [7] was “inconclusive”.
Regarding `O=C(O)CSSCC(=O)O`, the AC50 entry in [6] and in [12] was “inconclusive” each time.
Take `Nc1nc2ncccn2c1-c1ccc(F)c(F)c1`: the half-maximal effective concentration (EC50) in [3] was 9.39 µM (active).
`C[C@@H](NCc1cc(Br)cc2[nH]c(=O)c(=O)[nH]c12)P(=O)(O)O`: the concentration at half-maximal activity (AC50) result in data set [7] was “inconclusive”.
Turning to `C=CCN=C=S` [ALLYL ISOTHIOCYANATE], the AC50 in data set [4] was 39.8 µM (inconclusive).

The term EC50 denotes the concentration needed to bring the measured effect to its halfway point. The term IC50 denotes the midpoint of a concentration-inhibition curve. Broadly, the AC50 is the concentration giving half of the maximal activity seen.
